Results published in patent publication US5534517A, “(Aryl(alkyl)carbonyl)-heterocyclic compounds and their use in the treatment of anxiety and depression” (Adir Et Compagnie, priority 1993, dated 1996).
Where two headings read alike, the source gives them in different places.

Legend:
[1] = target: T1, 5-HT2 serotoninergic receptors (Rattus norvegicus, UniProt P14842); experiment: in-vitro affinity for 5-HT2 serotoninergic receptors, by measuring the displacement of aminoiodoketanserin, on rat frontal cortex preparations; details: read-out: IC50 (concentration inhibiting binding of the labelled ligand by 50%) (converted)
T1 construct: on rat frontal cortex preparations; from tissue; host or cells: rat frontal cortex
T1 sequence (P14842 whole entry): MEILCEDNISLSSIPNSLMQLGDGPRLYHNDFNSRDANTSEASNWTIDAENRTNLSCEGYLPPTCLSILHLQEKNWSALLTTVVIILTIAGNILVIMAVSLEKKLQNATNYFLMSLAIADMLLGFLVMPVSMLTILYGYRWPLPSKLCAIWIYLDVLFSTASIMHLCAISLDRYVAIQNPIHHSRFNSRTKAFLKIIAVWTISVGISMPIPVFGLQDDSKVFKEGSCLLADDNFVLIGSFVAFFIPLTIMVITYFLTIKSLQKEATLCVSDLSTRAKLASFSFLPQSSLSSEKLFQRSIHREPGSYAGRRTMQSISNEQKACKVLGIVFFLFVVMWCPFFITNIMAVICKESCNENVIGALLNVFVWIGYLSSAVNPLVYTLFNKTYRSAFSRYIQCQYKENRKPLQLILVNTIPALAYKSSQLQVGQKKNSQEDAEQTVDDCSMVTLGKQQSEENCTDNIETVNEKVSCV
Experimental: The in-vitro affinity of the compounds of the invention was determined
for 5-HT2 serotoninergic receptors, by measuring the displacement of aminoiodoketanserin, on rat frontal cortex preparations, […]

[2] = design: species or system Rats or mice; details: in vivo

Structure (SMILES)	IC50 [1] [nM]	other results
O=C(c1ccc(F)cc1)C1CCN(CCn2c(=O)sc3ccccc32)CC1 [Example 1, 3-{2-[4-(4-FLUOROBENZOYL)PIPERIDINO]ETHYL}BENZOTHIAZOLIN-2-ONE]	1	–
COc1ccccc1N1CCN(CCCCc2ccc3c(c2)sc(=O)n3CCN2CCC(C(=O)c3ccc(F)cc3)CC2)CC1 [Example 3, 3-{2-[4-(4-FLUOROBENZOYL)PIPERIDINO]ETHYL}-6-(4-[4-(2-METHOXY-PHENYL)PIPERAZINYL]BUTYL}BENZOTHIAZOLIN-2-ONE]	1	–
O=C(c1ccc(F)cc1)C1CCN(CCn2c(=O)sc3cc(CCCCN4CCOCC4)ccc32)CC1 [Example 4, 3-{2-[4-(4-FLUOROBENZOYL)PIPERIDINO]ETHYL}-6-(4-MORPHOLINOBUTYL)BENZOTHIAZOLIN-2-ONE]	0.5	–
Cn1c(=O)sc2cc(CCN3CCC(C(=O)c4ccc(F)cc4)CC3)ccc21 [Example 48, 3-METHYL-6-{2-[4-(4-FLUOROBENZOYL)PIPERIDINO]ETHYL}BENZOTHIAZOLIN-2-ONE]	–	inhibition of reaction time which the animal takes to lick its paws [2]: 175%
CN1CC[C@]23c4c5ccc(O)c4O[C@H]2[C@@H](O)C=C[C@H]3[C@H]1C5 [morphine, reference compound]	–	inhibition of reaction time which the animal takes to lick its paws ([2]; ip): 129%
